{"source": "patent US20190055517A1", "about": "“Cell Line of M2c Macrophage and Its Applications” (National Pingtung University of Science and Technology, priority 2017, published 2019)", "molecules": {"B1": {"name": "IL-4: cytokine, 10 ng/ml, 24 hours, comparison drug to induce differentiation (protein, UniProt P05112 25-153, looked up)", "Interleukin-4": "HKCDITLQEIIKTLNSLTEQKTLCTELTVTDIFAASKNTTEKETFCRAATVLRQFYSHHEKDTRCLGATAQQFHRHKQLIRFLKRLDRNLWGLAGLNSCPVKEANQSTLENFLERLKTIMREKYSKCSS"}, "B2": {"name": "macrophage colony-stimulating factor (protein, UniProt P09603 33-554, looked up)", "Macrophage colony-stimulating …": "EEVSEYCSHMIGSGHLQSLQRLIDSQMETSCQITFEFVDQEQLKDPVCYLKKAFLLVQDIMEDTMRFRDNTPNAIAIVQLQELSLRLKSCFTKDYEEHDKACVRTFYETPLQLLEKVKNVFNETKNLLDKDWNIFSKNCNNSFAECSSQDVVTKPDCNCLYPKAIPSSDPASVSPHQPLAPSMAPVAGLTWEDSEGTEGSSLLPGEQPLHTVDPGSAKQRPPRSTCQSFEPPETPVVKDSTIGGSPQPRPSVGAFNPGMEDILDSAMGTNWVPEEASGEASEIPVPQGTELSPSRPGGGSMQTEPARPSNFLSASSPLPASAKGQQPADVTGTALPRVGPVRPTGQDWNHTPQKTDHPSALLRDPPEPGSPRISSLRPQGLSNPSTLSAQPQLSRSHSSGSVLPLGELEGRRSTRDRRSPAEPEGGPASEGAARPLPRFNSVPLTDTGHERQSEGSFSPQLQESVFHLLVPSVILVLLAVGGLLFYRWRRRSHQEPQRADSPLEQPEGSPLTQDDRQVELPV", "notes": "50 ng/ml, induces M2 macrophage polarization of monocytes"}}, "key": {"[1]": {"test_system": "Raw264.7 macrophages", "experiment": "H2O2 induction of apoptotic cells (annexin-V / 7-AAD flow cytometry)", "format": "cell-based, murine", "conditions": "1.5 mM H2O2 versus 0.5 and 1 mM, 12 hours, FIG. 19", "method": "Inducing apoptotic cells: minor changes were made from steps of obtaining apoptotic cells based on previous studies (Piao et al., 2011 and Fong et al 2007), detailed steps comprising: culture 1.5×10^6 RAW264.7 macrophages with DMEM medium containing 10% FBS in incubator (37° C., 5% CO2). After culturing overnight, treat with 0.5, 1, 1.5 mM H2O2 respectively in DMEM for 12 hours. Next, remove the DMEM medium containing H2O2 and wash the cells with PBS buffer, then use micropipette to transfer cells to 15 ml centrifuge tube and centrifuge cells at 4° C. for 5 mins at rotating speed of 500×g. Remove the supernatant and resuspend the cells with 95 μl […]. Following that, dye the cells with fluorescence marker annexin-V and 7-AAD (BD Bioscience) for 20 mins on ice, avoiding light. After marking the cells, use flow cytometry (FACS BD ARIA II) to detect fluorescence performance. Analysed by software CellQuest (BD Bioscience). If the cells were positive for annexin-V and negative for 7-AAD, the cells will be identified as early apoptotic cells; if the cells were positive for annexin-V and positive for 7-AAD, the cells would be identified as late apoptotic cells."}, "[2]": {"test_system": "murine M2 macrophage", "experiment": "Phagocytosis of FITC-Latex beads with PE-anti-MERTK staining (flow cytometry, fluorescence microscopy)", "format": "cell-based", "conditions": "fluorescence microscope, PE-MERTK, FIG. 18", "method": "In this example, experiment was performed to evaluate the effect of baicalin induced differentiated […] macrophages in promoting phagocytosis. Treatment conditions of drugs in each group is listed in chart 2, and control group is cultured in RPMI1640 (10% FCS) without any drugs. After treatment, collect 5×10^5 treated cells respectively and add 50 μl FITC-Latex beads (Phagocytosis assay kit (IgG FITC), Cayman Chemical, USA.) to perform phagocytosis experiment for 24 hours, and then use PE-anti-MERTK antibody to mark the cells and observe the fluorescence expression with flow cytometry."}, "[3]": {"test_system": "murine M2 macrophage", "experiment": "Macrophage phenotype by flow cytometry (CD86, CD206) after drug-induced differentiation", "format": "cell-based", "conditions": "conditions of chart 2, p<0.05, FIG. 3", "method": "(§1) Use PBS containing 0.5% BSA to flush out bone marrow cells from murine (C57BL/6J, 8-20 weeks, Taiwan National Laboratory Animal Center) femur, then use Ficoll-Hypaque (GE healthcare, SWEDEN) to isolate monocytes.\n(§2) Then, incubate 2×10^6 monocytes in 50 ng/ml M-CSF contained RPMI 1640 (10% FCS) medium under 37° c., 5% CO2 for seven days to induce M2 macrophage polarization. On the eighth day, collect 2×10^5 M2 macrophage and incubate them in RPMI 1640 (10% FCS) medium with Baicalin (50 μM, Tokyo Chemical Industry, JAPAN) for 24 hours. Baicalin will induce M2 macrophage to differentiate into M2C macrophage.\nEmbodiment 1 is prepared by the steps described above, isolate monocytes from murine bone marrow and use M-CSF to induce differentiation of M2 macrophage, and then use baicalin to induce M2C macrophage polarization. In comparison 1, incubate murine M2 macrophage in RPMI 1640 (10% FCS) containing LPS (lipopolysaccharide, 1 μg/ml, Sigma-Aldrich) for 2 hours. In comparison 2, incubate murine M2 macrophage in medium containing IL-4 ([…] Guidance System, Cambridge, UK) for 24 hours. The control group of M2 macrophage is incubated in RPMI 1640 (10% FCS) without any drugs. The conditions are shown below in chart 2.\nAfter induced differentiation is complete, use flow cytometry to analyse the macrophage phenotype, in the meantime, also use real time PCR (qPCR) to observe mRNA expression level of each gene.\n(§3) FIG. 2˜4 show results of macrophage phenotypes analysed by flow cytometry."}, "[4]": {"test_system": "monocytes from murine bone marrow", "experiment": "M-CSF induced M2 polarization of bone marrow monocytes (flow cytometry CD11b, CD206, CD80)", "format": "cell-based", "conditions": "50 ng/ml M-CSF, treated for 7 days, p<0.05, FIG. 2", "method": "as §1, §2, §3"}}, "data": [{"molecule": "OO", "note": "[Embodiment H2O2, H2O2]", "values": [{"measurement": "percentage of apoptotic cells", "setting": "[1]", "value": "higher percentage of apoptotic cells"}]}, {"molecule": "lipopolysaccharide [LPS, reference compound]", "values": [{"measurement": "MERTK fluorescence distribution of cells after phagocytosing FITC-Latex beads", "setting": "[2]", "value": "comparatively weaker"}, {"measurement": "percentage of M1 macrophage (CD86+CD206-)", "setting": "[3]", "value": "higher"}]}, {"molecule": "B1", "values": [{"measurement": "percentage of M2 macrophage (CD86-CD206+)", "setting": "[3]", "value": "higher"}]}, {"molecule": "B2", "values": [{"measurement": "percentage of cells expressing CD11b and CD206 at the same time (CD11b+CD206+)", "setting": "[4]", "value": "highest percentage"}]}]}
